Legend:
[1] = test system: hematopoietic system (5-FU toxicity); test: Oral TAU vs uridine rescue from 5-FU hematologic toxicity (Example 1); format: in vivo, female Balb/C mice
Procedure: Forty-five female Balb/C mice (20 grams each) were given 5-fluorouracil (150 mg/kg, i.p.) at 12:00 noon on the initial day of the experiment. These animals were then divided into 5 groups: control (water, p.o.), oral uridine at 400 mg/kg/dose, oral uridine at 800 mg/kg/dose, parenteral (i.p.) uridine at 400 mg/kg/dose, and oral TAU at 500 mg/kg/dose.
Two hours after administration of 5-FU, the rescue treatments with uridine or triacetyluridine were begun. Groups received their designated treatment at 2:00 p.m., 4:00 p.m., and 6:00 p.m. on the day of 5-FU administration, and at 9 a.m., 11:00 a.m., 1:00 p.m., 3:00 p.m. and 5:00 p.m. on the following day. Each dose of uridine or TAU was administered in 0.2 ml of water by gavage or in 0.2 ml of saline by i.p. injection, as appropriate.
Mice were sacrificed by cervical dislocation; femurs were removed, and their cell contents were expelled for counting; spleens were also removed and weighed. […]

[2] = test system: CD8F1 spontaneous breast tumors; test: TAU/uridine rescue with PALA-MTX-5-FU-LV combination chemotherapy in tumor-bearing mice (Example 6); format: in vivo, male CD8F1 mice; details: PALA-MTX-5-FU-LV weekly x3
Procedure: Forty male CD8F1 mice with transplanted CD8F1 spontaneous breast tumors (initial tumor weight of 155 mg) were treated weekly with the following regimen:
In order to evaluate and compare the efficacy of TAU and uridine, the mice were divided into four groups of ten animals each.
Saline, uridine, or TAU was administered every eight hours for a total of 5 treatments starting two hours after each weekly dose of 5-FU. This weekly regimen was repeated for three successive weeks. One week after the third course of chemotherapy regimen, mortality in each group was assessed and, where a sufficient number of animals survived, body weight and tumor weight were also measured.

[3] = test system: hematopoietic system (5-FU toxicity); test: Acyl derivatives of uridine i.p. vs bone marrow toxicity of 5-FU (Example 3); format: in vivo, female Balb/C mice; details: for HCT % / Lym / Neut / RBC / WBC: eleven days after 5-FU
Procedure: Ninety-eight female Balb/C mice weighing approximately 20 grams each were given a one-time 150 mg/kg injection (i.p.) of 5-FU at 1 p.m. on the initial day of the study. […] All of these doses are equimolar, and were administered in a volume of 0.4 ml by i.p. injection. The groups were treated at 3:30, 6:00, and 8:30 p.m. on the initial day with their respective agents. […] On days seven and eleven following 5-FU administration, blood (0.2–0.3 ml) was collected from seven mice in each group by retro-orbital bleeding into EDTA for subsequent differential blood cell counting. Mice were sacrificed by cervical dislocation; their right femurs removed and the contents expelled for cell counting; and their spleens removed and weighed.

[4] = test system: hematopoietic system (AZT toxicity); test: Oral TAU vs hematopoietic damage by AZT in drinking water (Example 8); format: in vivo, Balb/C female mice
Procedure: Forty-two Balb/C female mice, each weighing approximately 19 grams, were divided into three different groups of 14 animals each. The three groups were: basal (no AZT, no treatment), control (AZT, water), and TAU (AZT, TAU at 460 mg/kg/treatment). AZT was administered ad libitum in the drinking water at a concentration of 1.5 mg/ml throughout the course of the experiment. The volume of AZT solution consumed in all treatment groups was similar and averaged 2.25 ml per day per mouse, resulting in a daily AZT dose of about 170 mg/kg per day. Water and TAU were administered in a volume of 0.2 mL three times per day for the first 24 days of the study, and twice each day thereafter.
All of the animals were weighed on the day the experiment began, once each week, and immediately prior to sacrifice. After weighing the mice on days 24 and 35, blood (0.2–0.3 ml) was collected from seven mice in each group by retro-orbital bleeding into EDTA for subsequent differential blood cell counting, including reticulocytes. Mice were then sacrificed by cervical dislocation; their right femurs removed and the contents expelled for cell counting; and their spleens removed and weighed.

[5] = test system: CD8F1 spontaneous mammary adenocarcinoma; test: TAU/uridine rescue with 5-FU alone in tumor-bearing mice (Example 5); format: in vivo
Procedure: Sixty CD8F1 (BALB/C×[…]) female mice with first generation transplants of CD8F1 spontaneous mammary adenocarcinoma were treated with a weekly chemotherapy regimen which included a single dose of 5-FU (150 mg/kg) followed by various rescue strategies. The average tumor size was 157 mg at the start of the chemotherapy. The weekly chemotherapy course was completed three times.
In order to evaluate the various rescue therapies, the animals were divided into six groups of ten animals each as follows: […]

[6] = 7 days after 5-FU 150 mg/kg i.p., oral, Urd 400 or equimolar TAU 500 mg/kg/dose
[7] = 7 days after 5-FU, oral, Urd 400 or equimolar TAU 500 mg/kg/dose
[8] = 11 days after 5-FU, oral, Urd 400 or equimolar TAU 500 mg/kg/dose
[9] = oral uridine 4,000 or equimolar TAU 6,066 mg/kg every 8 h x5
[10] = day seven after 5-FU, TAU 455 mg/kg/treatment i.p.
[11] = day 24, AZT in drinking water + oral TAU 460 mg/kg/treatment
[12] = day 35, AZT in drinking water + oral TAU 460 mg/kg/treatment
[13] = 5-FU 150 mg/kg i.p. weekly x3 + oral uridine 5,000 or equimolar TAU 7,582 mg/kg
[14] = 7 days after 5-FU, Urd 400 mg/kg/dose i.p.
[15] = 7 days after 5-FU, Urd 800 mg/kg/dose oral
[16] = 11 days after 5-FU, Urd 400 mg/kg/dose i.p.
[17] = 11 days after 5-FU, Urd 800 mg/kg/dose oral
[18] = 5-FU 150 mg/kg i.p. weekly x3 + uridine 3,500 mg/kg i.p.

Structure (SMILES): CC(=O)OC[C@H]1O[C@@H](n2ccc(=O)[nH]c2=O)[C@H](OC(C)=O)[C@@H]1OC(C)=O [TAU, triacetyluridine]
- WBC [1, 6]: 5.9 ± .4 K/μl
- Lymphocytes [1, 7]: 4.72 ± .36 K/μl
- Marrow cell counts [1, 7]: 3.0 ± .5 × 10^6 × 10^6/femur
- Neutrophils [1, 7]: 1.20 K/μl
- Platelets [1, 7]: 723 K/μl
- RBC [1, 7]: 8.27 ± .16 M/μl
- Spleen weight [1, 7]: 78 ± 3.5 mg
- Lymphocytes [1, 8]: 3.29 ± .36 K/μl
- Neutrophils [1, 8]: 1.89 K/μl
- Platelets [1, 8]: 1446 K/μl
- RBC [1, 8]: 8.05 M/μl
- Spleen weight [1, 8]: 143 ± 11 mg
- WBC [1, 8]: 5.4 ± .5 K/μl
- Average Final Tumor Weight ([2]; oral TAU 6,066 mg/kg): 162 mg
- Mortality [2, 9]: 1/10
- bone marrow cellularity [3, 10]: 4.50±77 ×10^3 per microliter
- increase of bone marrow cellularity over control values [3, 10]: 40%
- HCT % ([3]; equimolar i.p. doses): 35.01 ± 1.2%
- Lym ([3]; equimolar i.p. doses): 5.6 ± .4 K/μl
- Neut ([3]; equimolar i.p. doses): .55 ± K/μl
- RBC ([3]; equimolar i.p. doses): 7.35 ± .2 M/μl
- WBC ([3]; equimolar i.p. doses): 6.23 ± .55 K/μl
- Body weights ([4]; day 7, AZT […] in drinking water + oral TAU 460 mg/kg/treatment): 19.51±0.38 grams
- RBC counts [4, 11]: 9.01±0.09
- Total neutrophil counts [4, 11]: 0.91±0.06
- HCT [4, 12]: 41.26 ± .62 percentage
- HGB [4, 12]: 15.14 ± .12 gm/dl
- MCH (mean cell hematocrit) [4, 12]: 18.49 ± .28 picograms
- MCV [4, 12]: 50.41 ± .48 fL
- PLT [4, 12]: 809 ± 06 K/μl
- RBC [4, 12]: 8.20 ± .20 M/μl
- reticulocyte levels [4, 12]: 0.371 ×10^6 per microliter
- Average Final Tumor Weight [5, 13]: 1,013 mg
- Mortality [5, 13]: 1/10

Structure (SMILES): O=c1ccn([C@@H]2O[C@H](CO)[C@@H](O)[C@H]2O)c(=O)[nH]1 [Urd, uridine]
- WBC [1, 6]: 4.4 ± .5 K/μl
- Lymphocytes [1, 14]: 3.80 ± .30 K/μl
- Marrow cell counts [1, 14]: 5.0 ± .7 × 10^6 × 10^6/femur
- Neutrophils [1, 14]: 0.83 ± .24 K/μl
- Platelets [1, 14]: 773 K/μl
- RBC [1, 14]: 8.06 ± .05 M/μl
- Spleen weight [1, 14]: 78 ± 5.5 mg
- WBC [1, 14]: 4.6 ± .4 K/μl
- Lymphocytes [1, 15]: 3.76 ± .27 K/μl
- Marrow cell counts [1, 15]: 2.9 ± .9 × 10^6 × 10^6/femur
- Neutrophils [1, 15]: 0.88 ± .22 K/μl
- Platelets [1, 15]: 646 K/μl
- RBC [1, 15]: 8.24 ± .26 M/μl
- Spleen weight [1, 15]: 74 ± 6.4 mg
- WBC [1, 15]: 4.6 ± .4 K/μl
- Lymphocytes [1, 7]: 3.01 ± .77 K/μl
- Marrow cell counts [1, 7]: 1.6 ± .2 × 10^6 × 10^6/femur
- Neutrophils [1, 7]: 0.48 ± .23 K/μl
- Platelets [1, 7]: 434 K/μl
- RBC [1, 7]: 7.66 ± .12 M/μl
- Spleen weight [1, 7]: 74 ± 2.4 mg
- Lymphocytes [1, 16]: 3.84 ± .38 K/μl
- Neutrophils [1, 16]: 1.20 ± .21 K/μl
- Platelets [1, 16]: 1706 K/μl
- RBC [1, 16]: 7.78 ± .22 M/μl
- Spleen weight [1, 16]: 104 ± 6 mg
- WBC [1, 16]: 5.1 ± .5 K/μl
- Lymphocytes [1, 17]: 4.07 ± .38 K/μl
- Neutrophils [1, 17]: 0.82 ± .19 K/μl
- Platelets [1, 17]: 2127 K/μl
- RBC [1, 17]: 7.33 ± .16 M/μl
- Spleen weight [1, 17]: 99 ± 6 mg
- WBC [1, 17]: 4.9 ± .4 K/μl
- Lymphocytes [1, 8]: 3.65 ± .27 K/μl
- Neutrophils [1, 8]: 0.84 ± .19 K/μl
- Platelets [1, 8]: 1940 K/μl
- RBC [1, 8]: 7.44 ± .14 M/μl
- Spleen weight [1, 8]: 103 ± 15 mg
- WBC [1, 8]: 4.6 ± .5 K/μl
- Mortality [2, 9]: 5/10
- Average Final Tumor Weight ([2]; uridine 3,500 mg/kg i.p.): 110 mg
- Mortality ([2]; uridine 3,500 mg/kg i.p. every 8 h x5): 0/10
- Spleen weights ([3]; day eleven after 5-FU, equimolar i.p. doses, in mg): 121.6±9.7
- Spleen weight ([3]; day seven after 5-FU 150 mg/kg i.p., i.p. doses equimolar to uridine 300 mg/kg/treatment): 80.4 ± 7.8 mg
- Platelet counts ([3]; day seven after 5-FU, equimolar i.p. doses): 785.3±57.5 ×10^3 per microliter
- HCT % ([3]; equimolar i.p. doses): 34.67 ± 0.9%
- Lym ([3]; equimolar i.p. doses): 4.6 ± .4 K/μl
- Neut ([3]; equimolar i.p. doses): .60 ± K/μl
- RBC ([3]; equimolar i.p. doses): 7.32 ± .2 M/μl
- WBC ([3]; equimolar i.p. doses): 5.20 ± .47 K/μl
- Average Final Tumor Weight [5, 13]: 896 mg
- Mortality [5, 13]: 0/10
- Average Final Tumor Weight [5, 18]: 1,604 mg
- Mortality [5, 18]: 1/10
